Measurements: patent US20050113319A1, “11-Deoxy-6,9-ether erythromycin compounds” (priority 2003, published 2005)
pEC50: −log10 of the molar value. In brackets after ≈: the same amount, converted by molar mass. Where two headings read alike, the source gives them in different places.

What was measured:
[1] = test system: Streptococcus pneumoniae ATCC 6301; assay: In vitro antibacterial activity; format: cell-based; details: ATCC6301
Method: Compounds of this invention were tested for in vitro activity against Streptococcus pneumoniae ATCC 6301, an erythromycin-sensitive strain, using methods known in the microbiological art.

motilin receptor [2] = molecular target: T1, motilin receptor (Homo sapiens, UniProt O43193); assay: Motilin receptor desensitization, cell-based assay; details: for Activity retained following exposure, 1 μM Compound: motilin receptor activity retained after exposure to 1 μM test compound; for Activity retained following exposure, 10 μM Compound: motilin receptor activity retained after exposure to 10 μM test compound
T1 sequence (O43193 whole entry): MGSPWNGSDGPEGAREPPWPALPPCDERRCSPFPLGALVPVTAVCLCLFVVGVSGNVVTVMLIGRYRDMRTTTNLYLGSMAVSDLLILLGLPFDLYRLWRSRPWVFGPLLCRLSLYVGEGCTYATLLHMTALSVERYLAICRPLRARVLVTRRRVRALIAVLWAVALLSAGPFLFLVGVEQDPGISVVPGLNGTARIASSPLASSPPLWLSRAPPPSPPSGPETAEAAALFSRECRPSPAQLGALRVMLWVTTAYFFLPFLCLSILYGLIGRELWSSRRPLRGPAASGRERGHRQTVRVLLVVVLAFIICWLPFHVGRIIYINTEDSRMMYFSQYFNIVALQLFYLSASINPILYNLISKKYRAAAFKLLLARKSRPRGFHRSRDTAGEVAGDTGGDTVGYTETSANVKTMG
Method: Compounds were tested for motilin receptor desensitization using the cell-based assay described in Carreras et al., U.S. 2002/0192709 A1 (2002), “Methods for Evaluating Therapeutic Efficacy,” incorporated herein by reference. Briefly, the test measures the extent of motilin receptor activity retained after exposure to varying amounts (1 and 10 μM) of test compound.

motilin receptor [3] = molecular target: T1, motilin receptor; assay: Motilin agonist activity (activation of the motilin receptor); format: cell-based
Method: Compounds of this invention were tested for motilin agonist activity, following the procedure of Carreras et al., Anal. Biochem., 300, 146-151 (2002), the disclosure of which is incorporated herein by reference.

Row | Compound | MIC ([1]; Streptococcus pneumoniae) | Activity retained following exposure, 1 μM Compound (motilin receptor [2]) | Activity retained following exposure, 10 μM Compound (motilin receptor [2]) | pEC50 (motilin receptor [3]) | MIC ([1]; Streptococcus pneumoniae ATCC 6301, erythromycin-sensitive strain, read-out: MIC)
1 | CC[C@H]1OC(=O)[C@H](C)[C@@H](O[C@H]2C[C@@](C)(OC)C[C@H](C)O2)[C@H](C)[C@@H](O[C@@H]2O[C@H](C)C[C@H](N(C)C)[C@H]2O)[C@@]2(C)C[C@@H](C)[C@H](O2)[C@H](C)C[C@H]1C [Compound IVa] | 25 µg/mL (≈ 37.3 µM) | 24 % of original | 7 % of original | 7.38 | 
2 | CC[C@H]1OC(=O)[C@H](C)[C@@H](O[C@H]2C[C@@](C)(OC)[C@@H](O)[C@H](C)O2)[C@H](C)[C@@H](O[C@@H]2O[C@H](C)C[C@H](N(C)C)[C@H]2O)[C@@]2(C)C[C@@H](C)[C@H](O2)[C@H](C)C[C@H]1C [Compound IVb] | 100 µg/mL (≈ 146 µM) | 57 % of original | 49 % of original | 6.64 | 
3 | CC[C@H]1OC(=O)[C@H](C)[C@@H](O[C@H]2C[C@@](C)(OC)C[C@H](C)O2)[C@H](C)[C@@H](O[C@@H]2O[C@H](C)C[C@H](N(C)C(C)C)[C@H]2O)[C@@]2(C)C[C@@H](C)[C@H](O2)[C@H](C)C[C@H]1C [Compound IVc] | 50 µg/mL (≈ 71.6 µM) | 9 % of original | 5 % of original | 7.89 | 
4 | CC[C@H]1OC(=O)[C@H](C)[C@@H](O[C@H]2C[C@@](C)(OC)C[C@H](C)O2)[C@H](C)[C@@H](O[C@@H]2O[C@H](C)C[C@H](N(C)CCF)[C@H]2O)[C@@]2(C)C[C@@H](C)[C@H](O2)[C@H](C)C[C@H]1C [Compound IVd] |  | 7 % of original | 5 % of original | 7.35 | > 100 µg/mL
